These results are taken from BindingDB's records for patent US20240025922 (Merck Patent, 2024).

Where only a bound is given, the exact number is not on record here.

Chain of Mitogen-activated protein kinase kinase kinase kinase 1 (Q92918 whole entry, the tested form may be a part): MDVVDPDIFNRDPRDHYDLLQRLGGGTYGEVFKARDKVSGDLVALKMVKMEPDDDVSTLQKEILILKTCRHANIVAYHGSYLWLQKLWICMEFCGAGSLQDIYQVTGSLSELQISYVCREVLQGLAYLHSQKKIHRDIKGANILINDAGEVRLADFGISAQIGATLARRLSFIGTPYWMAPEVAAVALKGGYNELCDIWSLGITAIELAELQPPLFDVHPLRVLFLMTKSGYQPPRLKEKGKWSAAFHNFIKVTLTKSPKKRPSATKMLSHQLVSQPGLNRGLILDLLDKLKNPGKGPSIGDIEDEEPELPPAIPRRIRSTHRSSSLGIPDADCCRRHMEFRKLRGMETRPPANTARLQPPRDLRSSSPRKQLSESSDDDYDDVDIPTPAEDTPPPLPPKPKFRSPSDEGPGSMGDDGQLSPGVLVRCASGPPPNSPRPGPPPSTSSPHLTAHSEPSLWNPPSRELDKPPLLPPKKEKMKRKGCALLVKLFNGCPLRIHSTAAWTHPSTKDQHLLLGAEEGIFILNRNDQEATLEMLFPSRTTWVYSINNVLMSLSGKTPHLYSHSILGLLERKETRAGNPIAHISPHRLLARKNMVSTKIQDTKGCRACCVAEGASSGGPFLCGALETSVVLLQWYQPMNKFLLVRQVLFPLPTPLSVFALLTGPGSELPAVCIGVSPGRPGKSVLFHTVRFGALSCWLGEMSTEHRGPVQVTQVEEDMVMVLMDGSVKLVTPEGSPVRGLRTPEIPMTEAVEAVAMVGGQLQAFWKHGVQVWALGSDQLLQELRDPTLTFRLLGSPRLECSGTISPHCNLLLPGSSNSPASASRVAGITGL

The assay deals with Mitogen-activated protein kinase kinase kinase kinase 1 (Homo sapiens, UniProt Q92918). The assay is described as follows: HPK1 Kinase Assay (Biochemical Assay). The procedure:
A recombinant fusion protein consisting of full-length human HPK1 (MAP4K1) with an N-terminal Glutatione S-transferase (GST) tag was produced in insect cells Sf21 using the baculovirus expression system. GST-HPK1 protein was purified from cell lysates by glutathione Sepharose affinity chromatography. The assay is run in three continuous steps: 1) the HPK1 enzymatic kinase reaction, 2) an ATP depletion, and 3) the ADP detection, the steps 2 and 3 are performed with ADP-Glo Kinase Assay kit from Promega (V9101). […] After 120 minutes, the reaction was stopped by adding 5 μL of ADP-Glo reagent (Promega, V9101) and incubating for 40 min. in the dark at 23 C. To determine the level of ADP, 10 μl ADP-Glo Detection solution was added and incubated for 1 hour at 23 C. in the dark.
The molecule `Cc1cc(Nc2cc3c(cn2)CCN(c2cnc4c(c2Cl)NCCO4)C3)nn1CC(=O)N(C)C` [US20240025922, Example 131] showed a 50% inhibitory concentration (IC50) of over 1000 nM. The value for `Cc1c(N2CCc3cnc(Nc4cc5n(n4)CC(=O)N(C(C)C)CC5)nc3C2)cnc2c1NCCO2` [US20240025922, Example 89] was over 1000 nM. `COc1cccc(F)c1N1CCc2cnc(Nc3cnc4c(c3)CN(C)CC4)nc2C1` [US20240025922, Example 120]: the IC50 is under 100 nM.
